Assay results: patent publication US8211402B2, “CA-IX specific radiopharmaceuticals for the treatment and imaging of cancer” (Molecular Insight Pharmaceuticals, Inc., priority 2008, dated 2012)

How the values were obtained:
CA-II = biological target: T1, CA-II (Homo sapiens, UniProt P00918); experiment: Inhibition of carbonic anhydrase II (4-nitrophenyl acetate hydrolysis, spectrophotometric at 400 nm); type: biochemical; settings: purified human enzyme 30 nM; 9 mM Tris-HCl, 81 mM NaCl, pH 7.4, 25° C.; 10 min preincubation
T1 construct: purchased R&D Systems
Protocol: (§1) Compounds were tested for their ability to inhibit carbonic anhydrase isozymes II and IX in vitro. Purified human enzymes were from R&D Systems (Minneapolis, Minn.). The inhibition constants (Ki) for CA-II and CA-IX were determined by the method of Pocker and Stone. Initial rates of 4-nitrophenyl acetate hydrolysis catalyzed by the different carbonic anhydrase isozymes were measured spectrophotometrically at 400 nm. Solutions of substrate (1×10^−2 to 1×10^−6 M) were prepared in anhydrous acetonitrile. A molar extinction coefficient of 18,000 M^−1·cm^−1 was used for the 4-nitrophenolate formed by hydrolysis under the conditions of the experiment (9 mM Tris-HCl, 81 mM NaCl, pH 7.4, 25° C.). The enzyme concentrations were 100 nM for CA-IX and 30 nM for CA-II. Non-enzymatic hydrolysis rates, determined in the absence of added enzyme, were subtracted from the observed rates. […] Dilutions of inhibitor were added to enzyme solutions and preincubated for 10 min to allow for the formation of the E-I complex prior to the addition of substrate. Acetazolamide was included in all assays as positive controls

CA-IX = biological target: T2, CA-IX (Homo sapiens, UniProt Q16790); experiment: Inhibition of carbonic anhydrase IX (4-nitrophenyl acetate hydrolysis, spectrophotometric at 400 nm); type: biochemical; settings: purified human enzyme 100 nM; 9 mM Tris-HCl, 81 mM NaCl, pH 7.4, 25° C.; 10 min preincubation
T2 construct: purchased R&D Systems
Protocol: as §1

IC50 (CA-II): 377 nM
IC50 (CA-IX): 77 nM
Structure (SMILES): NS(=O)(=O)c1ccc(NC(=S)N[C@@H](CC(=O)O)C(=O)N[C@@H](CC(=O)O)C(=O)NCc2ccc(I)cc2)cc1 [Comparative Example 1]
